According to PMC2680961, “Homologous desensitization of signalling by the alpha (α) isoform of the human thromboxane A2 receptor: A specific role for nitric oxide signalling” (Biochimica et Biophysica Acta, 2007):
Counter-ions that a name gives are not always drawn.

Experiments:
Assay type in all cases: cell-based
TPα = target: T1, TPα (Homo sapiens, UniProt P21731); assay: Intracellular calcium mobilization, HEK.TPα cells
T1 construct: expressed in transfected cells
T1 sequence (P21731 1-343): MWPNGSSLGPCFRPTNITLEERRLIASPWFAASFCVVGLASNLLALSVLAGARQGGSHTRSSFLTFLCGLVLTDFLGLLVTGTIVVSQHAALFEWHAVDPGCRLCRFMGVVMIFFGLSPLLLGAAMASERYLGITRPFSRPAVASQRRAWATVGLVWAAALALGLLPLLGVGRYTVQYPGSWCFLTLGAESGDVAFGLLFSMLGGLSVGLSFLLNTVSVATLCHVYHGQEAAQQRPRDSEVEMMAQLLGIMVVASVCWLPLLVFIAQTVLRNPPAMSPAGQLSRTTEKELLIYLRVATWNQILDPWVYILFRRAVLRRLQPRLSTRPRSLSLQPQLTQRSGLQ
Description: (§1) Measurement of intracellular calcium mobilization ([Ca^2+]i) in FURA2/AM preloaded HEK 293 cell lines (2 × 10^6 cells/dish), each transiently co-transfected with pADVA (10 μg), and pCMV:Gαq (25 μg), was carried out as previously described. To investigate the effect of GRK2/βARK1 on TP-mediated [Ca^2+]i mobilization, HEK.TPα or HEK.TPβ cells (2 × 10^6 cells/dish) were co-transfected with pADVA (10 μg), pCMV:Gαq (25 μg) along with pRK5:βARK1^495–689 (25 μg), encoding a dominant negative form of GRK2/βARK1[39]. Approximately 48 h post-transfection, cells were harvested by scraping, washed twice in ice-cold PBS and resuspended in HBSSHB (modified Ca^2+/Mg^2+-free Hank's buffered salt solution, containing […], pH 7.67, 0.1% bovine serum albumin (BSA)) buffer at 10^7 cells/ml and incubated in the dark with 5 μM FURA2/AM for 45 min at 37 °C. Cells were collected by centrifugation (900×g, 5 min), washed once in an equal volume of HBSSHB, and were finally resuspended in HBSSHB buffer at 10^7 cells/ml and kept at room temperature in the dark for 40 min. For each measurement of [Ca^2+]i mobilization, aliquots of cells were diluted to 0.825 × 10^6 cells/ml in HBSSHB, 1 mM CaCl2 and FURA2 fluorescence was recorded (2 ml aliquots of cells) at 37^ °C with gentle stirring with a Perkin Elmer-Cetus LS50-B spectrofluorometer at excitation wavelengths of 340 nm and 380 nm and emission wavelength of 510 nm, respectively.
[…] To assess agonist-mediated homologous desensitization, cells (0.825 × 10^6 cells/ml; 2 ml per assay) were stimulated with 1 μM U46619 (Primary stimulation) or, as a control, with the vehicle for 4 min; thereafter, cells were collected by centrifugation (900×g, 5 min); were washed twice in 2 ml HBSSHB, 1 mM CaCl2; and finally resuspended in 2 ml HBSSHB,1 mM CaCl2 and were left to recover over various time intervals (ranging from 0 to 60 min); thereafter, cells re-stimulated with 1 μM U46619 (Secondary stimulation) and changes in [Ca^2+]i mobilization were monitored as a function of time. To assess the role of protein kinase (PK) A, PKC or PKG on U46619-mediated desensitization of TPα signalling, cells were pre-incubated with the PKA inhibitor H-89 (10 μM), the PKC inhibitor GF 109203X (50 nM) or the PKG inhibitor KT 5823 (50 nM), for 15 min and respective kinase inhibitors were maintained throughout the primary/secondary U46619-stimulations and during the washes.
(§2) The vehicle had no effect on U46619-mediated [Ca^2+]i mobilization. Calibration of the signal was performed in each sample by adding 0.2% Triton X-100 to obtain the maximal fluorescence ratio (Rmax) and then 1 mM EGTA to obtain the minimal fluorescence ratio (Rmin). The ratio of the fluorescence at 340 nm to that at 380 nm is a measure of [Ca^2+]i, which assumes a Kd of 225 nM Ca^2+ for FURA2/AM. The results presented in the figures are representative data from at least three or four independent experiments and are plotted as changes in Ca^2+i mobilized (Δ[Ca^2+]i (nM)) as a function of time (s) upon ligand stimulation. Changes in [Ca^2+]i mobilization were determined by measuring peak rises in [Ca^2+]i mobilized (Δ[Ca^2+]i) and were calculated as mean changes in Δ[Ca^2+]i ± S.E.M. (nM).

TP^Δ328 = target: T2, TP^Δ328 (Homo sapiens, UniProt P21731); assay: Intracellular calcium mobilization, HEK.TP^Δ328 cells; conditions: HEK.TP^Δ328
T2 construct: expressed in transfected cells
T2 sequence (P21731 1-328): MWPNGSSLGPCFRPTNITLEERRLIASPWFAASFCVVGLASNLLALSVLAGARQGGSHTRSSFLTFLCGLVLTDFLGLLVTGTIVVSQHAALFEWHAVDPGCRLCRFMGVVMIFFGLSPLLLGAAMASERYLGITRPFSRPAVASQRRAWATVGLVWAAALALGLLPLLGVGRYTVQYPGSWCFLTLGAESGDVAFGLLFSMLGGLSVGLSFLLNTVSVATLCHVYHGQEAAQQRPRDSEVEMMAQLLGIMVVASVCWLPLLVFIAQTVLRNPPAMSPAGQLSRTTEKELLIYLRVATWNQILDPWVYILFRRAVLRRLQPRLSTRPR
Description: as §1
(§3) Cells were stimulated with the TP agonist U46619 (1 μM) and changes in [Ca^2+]i mobilization were monitored as a function of time. To assess agonist-mediated homologous desensitization, cells (0.825 × 10^6 cells/ml; 2 ml per assay) were stimulated with 1 μM U46619 (Primary stimulation) or, as a control, with the vehicle for 4 min; thereafter, cells were collected by centrifugation (900×g, 5 min); were washed twice in 2 ml HBSSHB, 1 mM CaCl2; and finally resuspended in 2 ml HBSSHB,1 mM CaCl2 and were left to recover over various time intervals (ranging from 0 to 60 min); thereafter, cells re-stimulated with 1 μM U46619 (Secondary stimulation) and changes in [Ca^2+]i mobilization were monitored as a function of time. To assess the role of protein kinase (PK) A, PKC or PKG on U46619-mediated desensitization of TPα signalling, cells were pre-incubated with the PKA inhibitor H-89 (10 μM), the PKC inhibitor GF 109203X (50 nM) or the PKG inhibitor KT 5823 (50 nM), for 15 min and respective kinase inhibitors were maintained throughout the primary/secondary U46619-stimulations and during the washes.
as §2

TPβ [1] = target: T3, TPβ (Homo sapiens, UniProt P21731); assay: Intracellular calcium mobilization, HEK.TPβ cells
T3 construct: expressed in transfected cells
T3 sequence (P21731 1-407 isoform P21731-2): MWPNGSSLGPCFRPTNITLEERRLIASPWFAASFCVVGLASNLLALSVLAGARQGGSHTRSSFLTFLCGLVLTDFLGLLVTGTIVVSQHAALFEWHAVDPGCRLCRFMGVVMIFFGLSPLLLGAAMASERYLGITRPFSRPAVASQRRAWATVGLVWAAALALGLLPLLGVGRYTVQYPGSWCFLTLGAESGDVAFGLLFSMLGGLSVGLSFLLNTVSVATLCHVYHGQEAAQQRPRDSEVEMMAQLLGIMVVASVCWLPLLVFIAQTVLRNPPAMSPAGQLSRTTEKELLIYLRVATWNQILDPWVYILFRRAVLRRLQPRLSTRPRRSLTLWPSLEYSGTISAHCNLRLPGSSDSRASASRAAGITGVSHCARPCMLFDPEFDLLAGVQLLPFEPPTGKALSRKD
Description: as §1, §3, §2

TPβ [2] = target: T3, TPβ; assay: Intracellular calcium mobilization, HEK.TPβ cells; conditions: inhibitor pre-incubated 15 min, primary/secondary U46619 stimulation

`Cl.Cl.O=S(=O)(NCCNCC=Cc1ccc(Br)cc1)c1cccc2cnccc12` [H-89, N-[2-((p-bromocinnamyl)amino)ethyl]-5-isoquino-linesulfonamide, 2HCL] was tested, and the “effect of inhibitor on [Ca2+]i mobilization in response to primary or secondary U46619” value (TPα; HEK.TPα, H-89 10 μM pre-incubation) was “no significant effect”, the “Δ[Ca2+]i, U46619-induced” value (TPα; HEK.TPα, primary 1 μM U46619 in presence of 10 μM H-89) was 220 ± 9.2 nM and the “Δ[Ca2+]i, U46619-induced” value (TPα; HEK.TPα, secondary 1 μM U46619 at 15 min in presence of 10 μM H-89) was 0 nM. For the same molecule, the “effect of inhibitor on [Ca2+]i mobilization in response to primary or secondary U46619” value (TP^Δ328; H-89 10 μM pre-incubation) was “no significant effect”, the “Δ[Ca2+]i, U46619-induced” value (TP^Δ328; primary 1 μM U46619 in presence of 10 μM H-89) was 180 ± 10 nM and the “Δ[Ca2+]i, U46619-induced” value (TP^Δ328; secondary 1 μM U46619 at 15 min in presence of 10 μM H-89) was 165 ± 8 nM.

In the case of `COC(=O)[C@@H](N)CCCNC(N)=N[N+](=O)[O-]` [L-NAME, NG-Nitro-L-arginine Methyl Ester, Hydrochloride], the “Δ[Ca2+]i, U46619-induced” value (TPα; HEK.TPα, primary 1 μM U46619 in presence of 1 μM L-NAME) is reported as 200 ± 9 nM, the “Δ[Ca2+]i, U46619-induced” value (TPα; HEK.TPα, secondary 1 μM U46619 at 15 min in presence of 1 μM L-NAME) is reported as 80 ± 5.9 nM and the “Δ[Ca2+]i, U46619-induced” value (TPβ [1]; primary 1 μM U46619 in presence of 1 μM L-NAME) is reported as 220 ± 40 nM. The “Δ[Ca2+]i, U46619-induced” value (TPβ [1]; secondary 1 μM U46619 at 15 min in presence of 1 μM L-NAME) was 0 nM and the “effect of inhibitor on U46619-induced [Ca2+]i mobilization by TPβ” value (TPβ [2]) was “no significant effect”.

For `CN(C)CCCn1cc(C2=C(c3c[nH]c4ccccc34)C(=O)NC2=O)c2ccccc21` [GF 109203X, 2-[1-(3-dimethylaminopropyl)-1H-indol-3-yl]-3-(1H-indol-3-yl)-maleimide], the “Δ[Ca2+]i, U46619-induced” value (TPα; HEK.TPα, primary 1 μM U46619 in presence of 50 nM GF 109203X) was 250 ± 12 nM, the “Δ[Ca2+]i, U46619-induced” value (TPα; HEK.TPα, secondary 1 μM U46619 at 15 min in presence of 50 nM GF 109203X) was 90 ± 8 nM and the “secondary U46619 [Ca2+]i response relative to primary response” value (TPα; TPα, in presence of GF 109203X (50 nM)) was 36%. For the same molecule, the “Δ[Ca2+]i, U46619-induced” value (TP^Δ328; primary 1 μM U46619 in presence of 50 nM GF 109203X) was 200 ± 9.8 nM and the “Δ[Ca2+]i, U46619-induced” value (TP^Δ328; secondary 1 μM U46619 at 15 min in presence of 50 nM GF 109203X) was 200 ± 12 nM.

With `O=C1C(Nc2ccccc2)=CC(=O)c2ncccc21` [LY 83583, 6-Anilino-5,8-quinolinequinone] the “Δ[Ca2+]i, U46619-induced” value (TPα; HEK.TPα, primary 1 μM U46619 in presence of 1 μM LY 83583) was 210 ± 12 nM, the “Δ[Ca2+]i, U46619-induced” value (TPα; HEK.TPα, secondary 1 μM U46619 at 15 min in presence of 1 μM LY 83583) was 58 ± 6 nM and the “Δ[Ca2+]i, U46619-induced” value (TPβ [1]; primary 1 μM U46619 in presence of 1 μM LY 83583) was 185 ± 26 nM. For the same molecule, the “Δ[Ca2+]i, U46619-induced” value (TPβ [1]; secondary 1 μM U46619 at 15 min in presence of 1 μM LY 83583) was 0 nM and the “effect of inhibitor on U46619-induced [Ca2+]i mobilization by TPβ” value (TPβ [2]) was “no significant effect”.
